Measurements published in patent publication US8263595B2, “Triazolopyridine compounds and their use as ask inhibitors” (Merck Serono SA, priority 2007, dated 2012).
Counter-ions that a name gives are not always drawn.

Legend:
human recombinant ASK1 = biological target: T1, human recombinant ASK1 (Homo sapiens, UniProt Q99683); experiment: Enzyme inhibition assay (in vitro ASK1 assay), luciferase-based measurement of remaining ATP; format: biochemical; details: human recombinant ASK1, MBP and ATP as substrates, 180 minutes at 30° C.; triplicates on at least 2 separate occasions
T1 sequence (Q99683 1-1374): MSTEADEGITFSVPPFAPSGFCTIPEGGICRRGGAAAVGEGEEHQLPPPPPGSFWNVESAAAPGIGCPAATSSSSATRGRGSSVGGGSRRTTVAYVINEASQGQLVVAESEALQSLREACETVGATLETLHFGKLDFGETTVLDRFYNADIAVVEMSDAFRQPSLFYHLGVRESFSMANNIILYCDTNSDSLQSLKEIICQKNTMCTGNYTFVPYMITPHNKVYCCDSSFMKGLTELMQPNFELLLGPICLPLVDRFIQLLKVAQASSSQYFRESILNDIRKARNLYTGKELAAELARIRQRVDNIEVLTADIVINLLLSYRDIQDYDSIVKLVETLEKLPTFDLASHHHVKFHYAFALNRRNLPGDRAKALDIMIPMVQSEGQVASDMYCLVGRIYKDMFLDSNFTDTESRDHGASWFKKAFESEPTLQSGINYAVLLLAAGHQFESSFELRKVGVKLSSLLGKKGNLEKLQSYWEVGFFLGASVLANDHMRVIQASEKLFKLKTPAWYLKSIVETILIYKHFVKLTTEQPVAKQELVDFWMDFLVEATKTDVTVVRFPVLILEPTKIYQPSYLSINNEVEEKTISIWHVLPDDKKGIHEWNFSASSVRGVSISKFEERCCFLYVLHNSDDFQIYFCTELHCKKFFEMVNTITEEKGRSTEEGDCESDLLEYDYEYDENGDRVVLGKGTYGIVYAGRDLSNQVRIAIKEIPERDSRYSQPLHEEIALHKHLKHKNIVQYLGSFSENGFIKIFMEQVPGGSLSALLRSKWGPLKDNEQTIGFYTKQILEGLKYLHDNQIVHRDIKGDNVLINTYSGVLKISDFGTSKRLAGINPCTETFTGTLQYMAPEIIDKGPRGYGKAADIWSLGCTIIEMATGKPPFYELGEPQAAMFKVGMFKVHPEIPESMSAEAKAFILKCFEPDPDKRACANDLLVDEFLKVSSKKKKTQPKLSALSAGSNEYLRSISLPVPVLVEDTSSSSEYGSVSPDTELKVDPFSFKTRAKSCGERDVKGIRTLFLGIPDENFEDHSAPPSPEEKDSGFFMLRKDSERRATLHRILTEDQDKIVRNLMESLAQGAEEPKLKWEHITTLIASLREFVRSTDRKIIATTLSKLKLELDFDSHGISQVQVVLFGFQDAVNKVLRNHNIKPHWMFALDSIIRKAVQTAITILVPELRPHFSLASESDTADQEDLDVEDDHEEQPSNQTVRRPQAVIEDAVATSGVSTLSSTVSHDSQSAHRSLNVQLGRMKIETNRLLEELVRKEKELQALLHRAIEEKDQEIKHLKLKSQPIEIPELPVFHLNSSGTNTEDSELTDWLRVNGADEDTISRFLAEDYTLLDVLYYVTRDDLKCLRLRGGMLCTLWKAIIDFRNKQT
Method: Assays were performed in a 384 well plate (Corning, #3654) format, using the human recombinant ASK1 as an enzyme and MBP (myelin basic protein, Upstate/Millipore, #13-104) with ATP as substrates. Assay read out was the measurement of the amount of ATP remaining after stopping the reaction, using a luciferase-based kit from Cambrex.
Compounds to be tested were dissolved in 100% DMSO at a concentration of 10 mM. Subsequent dilutions were performed in 100% DMSO using a Biomek FX Workstation. 5 μL of diluted compound or vehicle (6% DMSO) was distributed to a 384 well plate. 5 μL of substrates (ATP 7.5 μM, MBP 450 ng/μL) diluted in ASK1 buffer (20 mM Tris HCl pH 7.4, 0.001% Brij35, 0.01% BSA, 5 mM MgCl2, 1 mM DL-Dithiothreitol) were added, followed by 5 μL at of human recombinant ASK1 enzyme (22.5 ng/mL) diluted in ASK1 buffer in order to start the reaction. The reaction ran for 180 minutes at 30° C. before the addition of 5 μL of stop solution (Cambrex, #LT23-231). 10 μL of Pklight ATP detection reagent (Cambrex #LT23-233) were added. After 120 min of incubation, luminescence was measured on a Perkin-Elmer Victor 2 spectrofluorimeter. The percentage of inhibition relative to the fluorescence observed in the presence of solvent (1% DMSO) alone was determined. The IC50 values for inhibition were determined in triplicates on at least 2 separate occasions.

LPS-induced TNFα release = experiment: Lipopolysaccharide (LPS)-induced TNFα release assay in mice; format: in vivo; details: 30 mg/kg po, female C3H mice, given 15 min prior to LPS 0.3 mg/kg ip, blood sampled 90 min later
Method: The administration of LPS induces the release of TNFα from white blood cells (monocytes, macrophages, Kupffer cells, etc) and endothelial cells into the blood. This is a model for cytokine release that occurs during inflammation. […] ASK1 mediates free radical pathways. Based on this mechanism, the blockade of ASK1 by specific inhibitors should reduce LPS-induced TNFα release in mice.
Female C3H mice (Elevage Janvier) (8 week old), received E. Coli's LPS (O111:B4, Sigma, 0.3 mg/kg, ip) after the administration of the test articles. Ninety min later, the animals were sacrificed and the blood was sampled. Plasma levels of TNFα were determined in serum using an ELISA kit (R&D). LPS was solubilized in sterile saline.
The test articles were suspended in 0.5% CMC/0.25% Tween 20 and administered 15 min prior the challenge of LPS by oral route at the doses of 3 to 30 mg/kg. Control animals received the vehicle. In time course experiments, the test articles were administered 15 min to 4 hrs prior the challenge of LPS. Dexamethasone (0.1 mg/kg, po) was used as reference.
The animals were divided into 5 groups (6 mice each group):
Inhibition of TNFα release was calculated as follows: % inhibition=100*([…])) Where TNFα 1=TNFα concentration in group 1 (pg/ml), TNFα X=TNFα concentration in group X (pg/ml).

IC50 (human recombinant ASK1) [nM]	SMILES	% inhibition of LPS-induced TNFα release in mice (LPS-induced TNFα release) [%]
1100 ± 500	O=C(Nc1nc2cccc(NC3CC3)n2n1)c1cccnc1 [Example 30, N-[5-(cyclopropylamino)[1,2,4]triazolo[1,5-a]pyridin-2-yl]nicotinamide]	43 ± 3
119 ± 29	CCC(C)Nc1cc(Cl)cc2nc(NC(=O)c3ccc(NCCCO)nc3)nn12 (centres unmarked) [Example 169, N-[5-(sec-butylamino)-7-chloro[1,2,4]triazolo[1,5-a]pyridin-2-yl]-6-[(3-hydroxypropyl)amino]nicotinamide]	
17000 ± 5000	COCC(=O)Nc1nc2cccc(-c3ccoc3)n2n1 [Example 5, N-[5-(3-furyl)[1,2,4]triazolo[1,5-a]pyridin-2-yl]-2-methoxyacetamide]	
700 ± 100	COC(=O)[C@H]1CC[C@H](Nc2cc(C(F)(F)F)cc3nc(NC(=O)c4cccnc4)nn23)CC1 [Example 90, methyl trans-4-{[2-[(pyridin-3-ylcarbonyl)amino]-7-(trifluoromethyl)[1,2,4]triazolo[1,5-a]pyridin-5-yl]amino}cyclohexanecarboxylate]	
260 ± 10	COc1cc(-c2ccc3nc(NC(=O)c4cccnc4)nn3c2)ccc1O [Example 66, N-[6-(4-hydroxy-3-methoxyphenyl)[1,2,4]triazolo[1,5-a]pyridin-2-yl]nicotinamide hydrochloride]	
8000 ± 400	O=C(Nc1nc2cccc(-c3ccoc3)n2n1)c1ccc(C(F)(F)F)cc1 [Example 3, N-[5-(3-furyl)[1,2,4]triazolo[1,5-a]pyridin-2-yl]-4-(trifluoromethyl)benzamide]	
700 ± 200	O=C(Nc1nc2cccc(-c3ccoc3)n2n1)c1cccnc1 [Example 2, N-[5-(3-furyl)[1,2,4]triazolo[1,5-a]pyridin-2-yl]nicotinamide]	49 ± 8
120 ± 10	O=C(Nc1nc2cc(C(F)(F)F)cc(NC3CCCCC3)n2n1)c1cccnc1 [Example 74, N-[5-(cyclohexylamino)-7-(trifluoromethyl)[1,2,4]triazolo[1,5-a]pyridin-2-yl]nicotinamide]	
56 ± 8	CCC(C)Nc1cc(C(F)(F)F)cc2nc(NC(=O)c3cccnc3)nn12 (centres unmarked) [Example 100, N-[5-(sec-butylamino)-7-(trifluoromethyl)[1,2,4]triazolo[1,5-a]pyridin-2-yl]nicotinamide]	
138 ± 30	COc1cc(-c2ccc3nc(NC(=O)c4ccc(CN5CCCC5=O)cc4)nn3c2)ccc1O [Example 146, N-[6-(4-hydroxy-3-methoxyphenyl)[1,2,4]triazolo[1,5-a]pyridin-2-yl]-4-[(2-oxopyrrolidin-1-yl)methyl]benzamide]	
6900 ± 50	O=C(Nc1nc2cccc(NCc3ccco3)n2n1)c1ccccc1 [Example 44, N-{5-[(2-furylmethyl)amino][1,2,4]triazolo[1,5-a]pyridin-2-yl}benzamide]	
531 ± 18	COCCN(C)Cc1ccc(C(=O)Nc2nc3cccc(NC4CCCCC4)n3n2)cc1 [Example 130, N-[5-(cyclohexylamino)[1,2,4]triazolo[1,5-a]pyridin-2-yl]-4-{[(2-methoxyethyl)(methyl)amino]methyl}benzamide]	
3380	O=C(Nc1nc2cccc(NCC3CCCO3)n2n1)c1ccccc1 (centres unmarked) [Example 45, N-{5-[(tetrahydrofuran-2-ylmethyl)amino][1,2,4]triazolo[1,5-a]pyridin-2-yl}benzamide]	
7000 ± 1000	COC(=O)CCC(=O)Nc1nc2cccc(-c3ccoc3)n2n1 [Example 7, methyl 4-{[5-(3-furyl)[1,2,4]triazolo[1,5-a]pyridin-2-yl]amino}-4-oxobutanoate]	
16000 ± 4000	O=C(Nc1nc2cccc(-c3ccc[nH]3)n2n1)C1CCCC1 [Example 10, N-[5-(1H-pyrrol-2-yl)[1,2,4]triazolo[1,5-a]pyridin-2-yl]cyclopentanecarboxamide]	
2000	COc1cc(-c2ccc3nc(NC(=O)c4ccc(CN5CCCCC5)cc4)nn3c2)ccc1O [Example 144, N-[6-(4-hydroxy-3-methoxyphenyl)[1,2,4]triazolo[1,5-a]pyridin-2-yl]-4-(piperidin-1-ylmethyl)benzamide]	
67 ± 12	O=C(Nc1nc2cc(Cl)cc(NC3CCCCC3)n2n1)c1cccnc1 [Example 120, N-[7-chloro-5-(cyclohexylamino)[1,2,4]triazolo[1,5-a]pyridin-2-yl]nicotinamide]	
14800 ± 200	O=C(Nc1nc2cccc(-c3cn[nH]c3)n2n1)c1ccccc1 [Example 12, N-[5-(1H-pyrazol-4-yl)[1,2,4]triazolo[1,5-a]pyridin-2-yl]benzamide]	
519 ± 113	O=C(Nc1nc2cccc(NCC3CCCCC3)n2n1)c1cccnc1 [Example 115, N-{5-[(cyclohexylmethyl)amino][1,2,4]triazolo[1,5-a]pyridin-2-yl}nicotinamide]	
1700 ± 200	CC(C)(C)OC(=O)NCc1ccc(C(=O)Nc2nc3cccc(-c4ccoc4)n3n2)cc1 [Example 52, tert-butyl[4-({[5-(3-furyl)[1,2,4]triazolo[1,5-a]pyridin-2-yl]amino}carbonyl)benzyl]carbamate]	
1140	CN(C)Cc1ccc(C(=O)Nc2nc3cc(C(F)(F)F)cc(NC4CC4)n3n2)cc1 [Example 140, N-[5-(cyclopropylamino)-7-(trifluoromethyl)[1,2,4]triazolo[1,5-a]pyridin-2-yl]-4-[(dimethylamino)methyl]benzamide]	
